Measured values reported in patent US20140228349A1, “5,7-SUBSTITUTED-IMIDAZO[1,2-C]PYRIMIDINES” (Array BioPharma Inc., priority 2011, published 2014).

Columns and labels:
Format in all cases: biochemical
[1] = biological target: T1, JAK1 (Homo sapiens, UniProt P23458); test: JAK1 Inhibition Assay (Omnia kinase fluorescence peptide substrate); settings: averaged IC50 ranges; 40 μM (Km app) or 1 mM ATP, 15 nM JAK1
T1 construct: purchased Invitrogen Corporation, Carlsbad, Calif; IVGN PV4775
Summary of the method: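 15 nM JAK1, 8 μM Omnia Y12 peptide, 40 μM (Km app) or 1 mM ATP; 25 mM HEPES pH 7.4, 10 mM MgCl2, 2% DMSO. Fluorescence (ex 360/em 485 nm) read every 50 s over 45 min. IC50 by 4-parameter fit of percent of control, top dose 10 μM.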

[2] = biological target: T2, JAK3 (Homo sapiens, UniProt P52333); test: JAK3 Inhibition Assay (Omnia kinase fluorescence peptide substrate); settings: averaged IC50 ranges; 10 μM (Km app) or 1 mM ATP, 2.5 nM JAK3
T2 construct: purchased Invitrogen Corporation, Carlsbad, Calif; IVGN PV4080
T2 sequence (P52333 1-1124): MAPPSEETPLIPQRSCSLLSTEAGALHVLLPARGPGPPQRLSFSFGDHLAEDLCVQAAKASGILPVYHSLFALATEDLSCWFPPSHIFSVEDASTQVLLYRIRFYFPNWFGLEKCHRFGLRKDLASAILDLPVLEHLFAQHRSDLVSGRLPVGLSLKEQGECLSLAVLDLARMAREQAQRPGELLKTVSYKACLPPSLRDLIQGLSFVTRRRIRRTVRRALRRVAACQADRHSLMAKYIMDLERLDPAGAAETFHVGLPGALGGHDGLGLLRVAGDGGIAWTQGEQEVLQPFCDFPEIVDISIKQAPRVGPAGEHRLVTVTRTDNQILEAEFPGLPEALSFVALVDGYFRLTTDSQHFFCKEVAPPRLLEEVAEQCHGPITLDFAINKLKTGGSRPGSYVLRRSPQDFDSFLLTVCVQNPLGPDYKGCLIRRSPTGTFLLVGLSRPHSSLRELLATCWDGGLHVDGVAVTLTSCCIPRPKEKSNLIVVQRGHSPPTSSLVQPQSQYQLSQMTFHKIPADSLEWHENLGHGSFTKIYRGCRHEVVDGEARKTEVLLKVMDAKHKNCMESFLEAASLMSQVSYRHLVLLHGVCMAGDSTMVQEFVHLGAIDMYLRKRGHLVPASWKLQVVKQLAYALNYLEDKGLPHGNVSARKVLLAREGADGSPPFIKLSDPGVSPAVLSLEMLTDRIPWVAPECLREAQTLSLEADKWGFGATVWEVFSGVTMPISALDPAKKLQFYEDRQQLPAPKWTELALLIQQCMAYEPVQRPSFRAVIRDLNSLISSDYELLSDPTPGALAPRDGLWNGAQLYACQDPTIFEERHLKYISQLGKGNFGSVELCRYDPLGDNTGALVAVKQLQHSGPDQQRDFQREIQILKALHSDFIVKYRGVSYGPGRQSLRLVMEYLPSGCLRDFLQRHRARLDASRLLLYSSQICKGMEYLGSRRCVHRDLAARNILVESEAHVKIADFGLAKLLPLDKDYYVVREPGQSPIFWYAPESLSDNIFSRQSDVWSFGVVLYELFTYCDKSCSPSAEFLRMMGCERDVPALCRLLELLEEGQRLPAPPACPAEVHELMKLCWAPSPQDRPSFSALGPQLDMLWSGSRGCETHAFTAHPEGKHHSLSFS
Summary of the method: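 IC50 is the concentration giving 50 percent of control on a 4-parameter logistic fit of 10-point, 3-fold dilutions from a 10 μM top dose, at 2% final DMSO. Kinetic Sox fluorescence (360/485 nm) was monitored every 50 s for 45 min. Mix: JAK3 2.5 nM, Omnia Y7 peptide 10 μM, ATP 10 μM (Km app) or 1 mM, in HEPES pH 7.4 buffer with MgCl2, Triton X-100 and DTT.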

[3] = test system: Tyk2, JAK1, JAK2 and JAK3; test: in vitro assays (Examples A, B, C and D) taken together; settings: Reference Examples; statement in words
Description: The assays described in Examples A, B, C and D for the determination of Tyk2, JAK1, JAK2 and JAK3 kinase activity, respectively, utilized the Omnia® Kinase fluorescence peptide substrate-based technology (Invitrogen). The specific components of the assay mixture are described in Examples A, B, C and D. In these assays, Mg^2+ is chelated upon phosphorylation of the Omnia peptide by the kinase to form a bridge between the chelation-enhanced fluorophore Sox and the phosphate, resulting in an increase in fluorescence emission at 485 nm when excited at […]. The reactions were therefore read at excitation 360 nm and emission was measured at 485 nm every 50 seconds for 45 minutes using a PerkinElmer EnVision Multilabel Plate Reader.
The final buffer conditions for Tyk2, JAK1, JAK2, and JAK3 assays were as follows: 25 mM HEPES, pH 7.4, 10 mM MgCl2, 0.01% Triton X-100 and 1 mM DTT.
Compounds were prepared at 50× the final concentration in DMSO by conducting 3-fold serial dilutions from a 500-μM intermediate dilution to give a 10-point dosing curve having a high dose of 10 μM. Two-μL aliquots of these were transferred to a fresh plate for a ten-fold intermediate dilution with assay buffer. Five-μL aliquots of the diluted compounds were then transferred to 20-μL of assay mixtures described in Examples A, B, C and D for a final concentration of DMSO of 2%. A standard or reference compound was typically included on each assay plate to validate that plate. For each plate, percent of control (POC) values were calculated for each well according to the following equation: […]
Compounds of Formula I were screened for their ability to inhibit Tyk2 using the general enzyme inhibition assay method, in which the assay mixture contained 10 μM (Km app) or 1 mM ATP, 8 μM Omnia® Y12 peptide (Catalog #IVGN KPZ3121C; Invitrogen Corporation, Carlsbad, Calif.) and 2 nM Tyk2 in a total volume of 20 μL. Human Tyk2 kinase domain, comprising amino acids 886 to 1187 with 10 additional histidine residues (histidine tag) on the carboxy terminus, was expressed and purified from bacculovirus in-house at Array BioPharma Inc. (Boulder, Colo.). The histidine tag was cleaved after purification using standard conditions.
Compounds of Formula I were screened for their ability to inhibit JAK1 using the general enzyme inhibition assay method, in which the assay mixture contained 40 μM (Km app) or 1 mM ATP, 8 μM Omnia® Y12 peptide (Catalog #IVGN KPZ3121C; Invitrogen Corporation, Carlsbad, Calif.) and 15 nM JAK1 in a total volume of 20 μL. JAK1 was purchased from Invitrogen Corporation, Carlsbad, Calif. (catalog #IVGN PV4775).
(§1) Compounds of Formula I were screened for their ability to inhibit JAK2 using the general enzyme inhibition assay method, in which the assay mixture contained 25 μM (Km app) or 1 mM ATP, 10 μM Omnia® Y7 peptide (Catalog #IVGN KNZ3071C, Invitrogen Corporation, Carlsbad, Calif.) and 5 nM JAK2 in a total volume of 20 μL. JAK2 was purchased from Invitrogen Corporation, Carlsbad, Calif. (catalog #IVGN PV4288).
as §1, with “JAK3” for “JAK2”, “10” for “25”, “2.5” for “5”, “PV4080).” for “PV4288).”

[4] = biological target: T3, JAK2 (Homo sapiens, UniProt O60674); test: JAK2 Inhibition Assay (Omnia kinase fluorescence peptide substrate); settings: averaged IC50 ranges; 25 μM (Km app) or 1 mM ATP, 5 nM JAK2
T3 construct: purchased Invitrogen Corporation, Carlsbad, Calif; IVGN PV4288

[5] = biological target: T4, Human Tyk2 kinase domain (Homo sapiens, UniProt P29597); test: Tyk2 Inhibition Assay (Omnia kinase fluorescence peptide substrate); settings: averaged IC50 ranges; 10 μM (Km app) or 1 mM ATP, 2 nM Tyk2
T4 construct: comprising amino acids 886 to 1187; His10 (10 histidine residues) (C, cleaved yes); made in house
T4 sequence (P29597 886-1187): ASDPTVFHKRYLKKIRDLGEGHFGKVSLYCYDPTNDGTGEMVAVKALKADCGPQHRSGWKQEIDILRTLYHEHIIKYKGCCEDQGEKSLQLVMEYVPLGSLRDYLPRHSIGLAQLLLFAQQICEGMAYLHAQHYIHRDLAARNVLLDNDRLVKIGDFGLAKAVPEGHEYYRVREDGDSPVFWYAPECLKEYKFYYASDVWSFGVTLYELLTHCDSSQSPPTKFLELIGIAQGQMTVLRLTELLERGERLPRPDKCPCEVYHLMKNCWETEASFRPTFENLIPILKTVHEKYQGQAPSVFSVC
Summary of the method: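 Phosphorylation of 8 μM Omnia Y12 peptide followed kinetically by Sox fluorescence, ex 360/em 485 nm, every 50 s for 45 min. Enzyme: 2 nM Tyk2 kinase domain (aa 886–1187, His tag removed); ATP at 10 μM (Km app) or 1 mM; buffer HEPES pH 7.4 with MgCl2, Triton X-100, DTT. 10-point curves up to 10 μM, IC50 from 4-parameter logistic fit.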

T3 sequence (O60674 whole entry): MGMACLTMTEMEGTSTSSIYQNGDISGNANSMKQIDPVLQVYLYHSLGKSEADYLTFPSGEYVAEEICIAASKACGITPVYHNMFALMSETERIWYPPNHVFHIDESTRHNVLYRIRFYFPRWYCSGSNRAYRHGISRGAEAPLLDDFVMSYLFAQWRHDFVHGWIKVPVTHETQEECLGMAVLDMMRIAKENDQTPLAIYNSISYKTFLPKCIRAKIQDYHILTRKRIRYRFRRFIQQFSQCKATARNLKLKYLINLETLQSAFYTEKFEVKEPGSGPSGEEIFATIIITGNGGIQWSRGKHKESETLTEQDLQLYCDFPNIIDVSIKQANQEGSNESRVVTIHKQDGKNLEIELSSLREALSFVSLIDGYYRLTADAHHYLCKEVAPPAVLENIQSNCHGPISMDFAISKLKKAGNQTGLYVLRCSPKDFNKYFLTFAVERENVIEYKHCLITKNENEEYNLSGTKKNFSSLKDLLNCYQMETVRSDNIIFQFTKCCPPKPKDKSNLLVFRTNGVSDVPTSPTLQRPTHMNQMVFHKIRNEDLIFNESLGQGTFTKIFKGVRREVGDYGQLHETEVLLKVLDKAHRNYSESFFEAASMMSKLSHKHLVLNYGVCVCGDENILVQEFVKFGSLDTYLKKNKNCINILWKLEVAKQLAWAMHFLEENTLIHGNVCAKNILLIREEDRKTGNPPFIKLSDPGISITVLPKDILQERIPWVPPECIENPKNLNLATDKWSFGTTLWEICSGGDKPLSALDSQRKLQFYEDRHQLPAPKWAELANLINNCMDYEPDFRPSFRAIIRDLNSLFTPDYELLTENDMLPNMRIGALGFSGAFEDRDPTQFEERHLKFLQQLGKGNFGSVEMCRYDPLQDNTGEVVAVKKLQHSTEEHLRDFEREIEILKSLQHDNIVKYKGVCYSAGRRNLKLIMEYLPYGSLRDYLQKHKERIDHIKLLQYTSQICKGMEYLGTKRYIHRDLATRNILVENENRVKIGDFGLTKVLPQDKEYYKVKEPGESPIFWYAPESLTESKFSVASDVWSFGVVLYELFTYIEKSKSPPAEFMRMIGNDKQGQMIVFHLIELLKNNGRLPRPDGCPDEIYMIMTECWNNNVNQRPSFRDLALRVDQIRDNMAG
T1 sequence (P23458 whole entry): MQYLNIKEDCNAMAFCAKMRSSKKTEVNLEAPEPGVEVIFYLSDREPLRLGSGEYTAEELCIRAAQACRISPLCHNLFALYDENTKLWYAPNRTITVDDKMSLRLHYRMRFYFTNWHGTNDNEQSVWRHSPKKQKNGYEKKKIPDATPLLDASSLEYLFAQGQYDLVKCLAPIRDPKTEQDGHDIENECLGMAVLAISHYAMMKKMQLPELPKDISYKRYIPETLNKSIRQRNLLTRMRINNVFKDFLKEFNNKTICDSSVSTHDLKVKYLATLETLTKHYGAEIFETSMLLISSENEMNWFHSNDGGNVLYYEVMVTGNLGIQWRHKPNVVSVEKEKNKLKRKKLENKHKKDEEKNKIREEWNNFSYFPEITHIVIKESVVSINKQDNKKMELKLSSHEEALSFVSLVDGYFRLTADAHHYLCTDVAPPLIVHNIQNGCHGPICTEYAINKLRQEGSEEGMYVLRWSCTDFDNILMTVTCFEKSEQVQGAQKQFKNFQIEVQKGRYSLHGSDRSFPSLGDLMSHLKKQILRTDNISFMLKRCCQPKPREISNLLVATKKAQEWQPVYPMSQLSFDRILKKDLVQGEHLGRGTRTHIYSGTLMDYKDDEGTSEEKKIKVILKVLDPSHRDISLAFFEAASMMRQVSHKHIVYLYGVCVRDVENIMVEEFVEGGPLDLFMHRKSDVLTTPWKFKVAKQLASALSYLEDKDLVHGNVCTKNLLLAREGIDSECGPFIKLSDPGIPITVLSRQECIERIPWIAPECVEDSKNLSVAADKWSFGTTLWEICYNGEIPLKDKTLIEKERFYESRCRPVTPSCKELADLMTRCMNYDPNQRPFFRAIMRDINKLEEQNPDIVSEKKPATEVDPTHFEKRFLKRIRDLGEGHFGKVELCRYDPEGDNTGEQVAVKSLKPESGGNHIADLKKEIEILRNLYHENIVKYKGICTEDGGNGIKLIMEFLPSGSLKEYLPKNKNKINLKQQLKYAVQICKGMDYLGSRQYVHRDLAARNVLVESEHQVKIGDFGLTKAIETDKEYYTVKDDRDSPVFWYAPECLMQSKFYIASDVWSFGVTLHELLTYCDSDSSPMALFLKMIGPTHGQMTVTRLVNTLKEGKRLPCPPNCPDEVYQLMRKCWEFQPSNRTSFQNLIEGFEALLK

Compound: COCCC1(n2cc(-c3nc(-c4cnn(C)c4)cc4nccn34)cn2)CN(C(=O)N(C)C)C1 [Example 99, 3-(2-methoxyethyl)-N,N-dimethyl-3-(4-(7-(1-methyl-1H-pyrazol-4-yl)imidazo[1,2-c]pyrimidin-5-yl)-1H-pyrazol-1-yl)azetidine-1-carboxamide]
- IC50 [1]: > 1000 nM
- IC50 [2]: > 1000 nM
- activity in the in vitro assays [3]: weakly active
- IC50 [4]: > 1000 nM
- IC50 [5]: > 1000 nM

Compound: Cn1cc(-c2cc3nccn3c(-c3cnn(C4(CCF)CN(C(=O)C5CC5)C4)c3)n2)cn1 [Example 97, cyclopropyl(3-(2-fluoroethyl)-3-(4-(7-(1-methyl-1H-pyrazol-4-yl)imidazo[1,2-c]pyrimidin-5-yl)-1H-pyrazol-1-yl)azetidin-1-yl)methanone]
- IC50 [1]: > 1000 nM
- IC50 [2]: > 1000 nM
- activity in the in vitro assays [3]: weakly active
- IC50 [4]: > 1000 nM
- IC50 [5]: > 1000 nM

Compound: Cn1cc(-c2cc3nccn3c(-c3cnn(C4(CCF)CCC4)c3)n2)cn1 [Example 52, 5-(1-(1-(2-fluoroethyl)cyclobutyl)-1H-pyrazol-4-yl)-7-(1-methyl-1H-pyrazol-4-yl)imidazo[1,2-c]pyrimidine]
- IC50 [1]: 100 to 1000 nM
- IC50 [2]: 100 to 1000 nM
- IC50 [4]: 100 to 1000 nM
- IC50 [5]: 10 to 100 nM

Compound: COCCC(C1CC1)n1cc(-c2nc(-c3cnn(C)c3)cc3nccn23)cn1 (centres unmarked) [Example 74, 5-(1-(1-cyclopropyl-3-methoxypropyl)-1H-pyrazol-4-yl)-7-(1-methyl-1H-pyrazol-4-yl)imidazo[1,2-c]pyrimidine]
- IC50 [1]: > 1000 nM
- IC50 [2]: > 1000 nM
- IC50 [4]: 100 to 1000 nM
- IC50 [5]: 10 to 100 nM

Compound: CCOC(=O)CC1(n2cc(-c3nc(-c4cnn(C)c4)cc4nccn34)cn2)CN(S(=O)(=O)C(F)(F)F)C1 [Example 1, ethyl 2-(3-(4-(7-(1-methyl-1H-pyrazol-4-yl)imidazo[1,2-c]pyrimidin-5-yl)-1H-pyrazol-1-yl)-1-(trifluoromethylsulfonyl)azetidin-3-yl)acetate]
- IC50 [1]: > 1000 nM
- IC50 [2]: > 1000 nM
- IC50 [4]: > 1000 nM
- IC50 [5]: 100 to 1000 nM

Compound: Cn1cc(-c2cc3nccn3c(-c3cnn(C(CC(N)=O)C4CC4)c3)n2)cn1 (centres unmarked) [Example 63, 3-cyclopropyl-3-(4-(7-(1-methyl-1H-pyrazol-4-yl)imidazo[1,2-c]pyrimidin-5-yl)-1H-pyrazol-1-yl)propanamide]
- IC50 [1]: > 1000 nM
- IC50 [2]: > 1000 nM
- IC50 [4]: 100 to 1000 nM
- IC50 [5]: 100 to 1000 nM

Compound: COCCC1(n2cc(-c3nc(-c4cnn(C)c4)cc4nccn34)cn2)CN(S(=O)(=O)C(F)(F)F)C1 [Example 100, 5-(1-(3-(2-methoxyethyl)-1-((trifluoromethyl)sulfonyl)azetidin-3-yl)-1H-pyrazol-4-yl)-7-(1-methyl-1H-pyrazol-4-yl)imidazo[1,2-c]pyrimidine]
- IC50 [1]: 10 to 100 nM
- IC50 [2]: 100 to 1000 nM
- IC50 [4]: 10 to 100 nM
- IC50 [5]: < 10 nM

Compound: COCCC(c1ccc(F)cc1)n1cc(-c2nc(-c3cnn(C)c3)cc3nccn23)cn1 (centres unmarked) [Example 82, 5-(1-(1-(4-fluorophenyl)-3-methoxypropyl)-1H-pyrazol-4-yl)-7-(1-methyl-1H-pyrazol-4-yl)imidazo[1,2-c]pyrimidine]
- IC50 [1]: 100 to 1000 nM
- IC50 [2]: 100 to 1000 nM
- IC50 [4]: 100 to 1000 nM
- IC50 [5]: 100 to 1000 nM

Compound: C=CC1(n2ccc(-c3nc(-c4cnn(C)c4)cc4nccn34)c2)CN(S(=O)(=O)C(F)(F)F)C1 [Example 27, 7-(1-methyl-1H-pyrazol-4-yl)-5-(1-(1-((trifluoromethyl)sulfonyl)-3-vinylazetidin-3-yl)-1H-pyrrol-3-yl)imidazo[1,2-c]pyrimidine]
- IC50 [1]: 10 to 100 nM
- IC50 [2]: 10 to 100 nM
- IC50 [4]: 10 to 100 nM
- IC50 [5]: < 10 nM
